PubChem BioAssay (NCI)
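Grown in 96-well plates, cells were treated for 48 hours with each compound at five concentrations. Insufficient inhibition: endpoint recorded as highest concentration tested. TGI denotes the concentration required for complete inhibition of growth.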

What was measured:
Assay in all cases: NCI tumour cell line growth inhibition, 48 h
UACC-257 melanoma = test system: UACC-257 melanoma
A498 renal = test system: A498 renal
HOP-92 NSCLC = test system: HOP-92 NSCLC
EKVX NSCLC = test system: EKVX NSCLC
SK-OV-3 ovarian = test system: SK-OV-3 ovarian
DMS 273 small cell lung = test system: DMS 273 small cell lung
M14 melanoma = test system: M14 melanoma
DMS 114 small cell lung = test system: DMS 114 small cell lung
CCRF-CEM leukemia = test system: CCRF-CEM leukemia
NCI-H226 lung = test system: NCI-H226 lung
LXFL 529 NSCLC = test system: LXFL 529 NSCLC
COLO 205 colon = test system: COLO 205 colon
DLD-1 colon = test system: DLD-1 colon
KM20L2 colon = test system: KM20L2 colon
A549 NSCLC = test system: A549 NSCLC
SNB-78 CNS = test system: SNB-78 CNS
SK-MEL-2 melanoma = test system: SK-MEL-2 melanoma
SK-MEL-28 melanoma = test system: SK-MEL-28 melanoma
NCI-H522 lung = test system: NCI-H522 lung
SR leukemia = test system: SR leukemia
IGROV1 ovarian = test system: IGROV1 ovarian
MALME-3M melanoma = test system: MALME-3M melanoma
RXF-631 renal = test system: RXF-631 renal
HOP-18 NSCLC = test system: HOP-18 NSCLC
HT29 colon = test system: HT29 colon
SNB-75 CNS = test system: SNB-75 CNS
SF-539 CNS = test system: SF-539 CNS
SNB-19 CNS = test system: SNB-19 CNS
HCT-116 colon = test system: HCT-116 colon
OVCAR-5 ovarian = test system: OVCAR-5 ovarian
SK-MEL-5 melanoma = test system: SK-MEL-5 melanoma
OVCAR-8 ovarian = test system: OVCAR-8 ovarian
UO-31 renal = test system: UO-31 renal
NCI-H460 lung = test system: NCI-H460 lung
UACC-62 melanoma = test system: UACC-62 melanoma
K-562 leukemia = test system: K-562 leukemia
OVCAR-3 ovarian = test system: OVCAR-3 ovarian
KM12 colon = test system: KM12 colon
SF-268 CNS = test system: SF-268 CNS
SN12C renal = test system: SN12C renal
M19-MEL melanoma = test system: M19-MEL melanoma
SW-620 colon = test system: SW-620 colon
CAKI-1 renal = test system: CAKI-1 renal
HL-60(TB) leukemia = test system: HL-60(TB) leukemia
SF-295 CNS = test system: SF-295 CNS
LOX IMVI melanoma = test system: LOX IMVI melanoma
TK-10 renal = test system: TK-10 renal
HOP-62 NSCLC = test system: HOP-62 NSCLC
RXF 393 renal = test system: RXF 393 renal
RPMI-8226 leukemia = test system: RPMI-8226 leukemia
OVCAR-4 ovarian = test system: OVCAR-4 ovarian
U251 CNS = test system: U251 CNS
786-0 renal = test system: 786-0 renal
ACHN renal = test system: ACHN renal
HCT-15 colon = test system: HCT-15 colon
NCI-H23 lung = test system: NCI-H23 lung
MOLT-4 leukemia = test system: MOLT-4 leukemia
HCC-2998 colon = test system: HCC-2998 colon
XF 498 CNS = test system: XF 498 CNS
NCI/ADR-RES ovarian = test system: NCI/ADR-RES ovarian
MCF7 breast = test system: MCF7 breast
P388/ADR leukemia = test system: P388/ADR leukemia
SN12K1 renal = test system: SN12K1 renal
P388 leukemia = test system: P388 leukemia

Measured: TGI

Nc1nc2ncn(CC(O)CO)c2c(=O)[nH]1 (configuration not stated)
> 100 µM: UACC-257 melanoma | A498 renal | HOP-92 NSCLC | EKVX NSCLC | SK-OV-3 ovarian | DMS 273 small cell lung | M14 melanoma | DMS 114 small cell lung | CCRF-CEM leukemia | NCI-H226 lung | LXFL 529 NSCLC | COLO 205 colon | DLD-1 colon | KM20L2 colon | A549 NSCLC | SNB-78 CNS | SK-MEL-2 melanoma | SK-MEL-28 melanoma | NCI-H522 lung | SR leukemia | IGROV1 ovarian | MALME-3M melanoma | RXF-631 renal | HOP-18 NSCLC | HT29 colon | SNB-75 CNS | SF-539 CNS | SNB-19 CNS | HCT-116 colon | OVCAR-5 ovarian | SK-MEL-5 melanoma | OVCAR-8 ovarian | UO-31 renal | NCI-H460 lung | UACC-62 melanoma | K-562 leukemia | OVCAR-3 ovarian | KM12 colon | SF-268 CNS | SN12C renal | M19-MEL melanoma | SW-620 colon | CAKI-1 renal | HL-60(TB) leukemia | SF-295 CNS | LOX IMVI melanoma | TK-10 renal | HOP-62 NSCLC | RXF 393 renal | RPMI-8226 leukemia | OVCAR-4 ovarian | U251 CNS | 786-0 renal | ACHN renal | HCT-15 colon

COC(=O)CCC(NC(=S)N/N=C(\C)c1cnccn1)C(=O)OC (configuration not stated)
84 µM: NCI-H522 lung
> 100 µM: UACC-257 melanoma | A498 renal | NCI-H23 lung | HOP-92 NSCLC | EKVX NSCLC | SK-OV-3 ovarian | M14 melanoma | NCI-H226 lung | LXFL 529 NSCLC | COLO 205 colon | DLD-1 colon | KM20L2 colon | A549 NSCLC | SNB-78 CNS | SK-MEL-2 melanoma | SK-MEL-28 melanoma | SR leukemia | IGROV1 ovarian | MALME-3M melanoma | RXF-631 renal | HOP-18 NSCLC | HT29 colon | SNB-75 CNS | SF-539 CNS | SNB-19 CNS | HCT-116 colon | SK-MEL-5 melanoma | OVCAR-8 ovarian | UO-31 renal | NCI-H460 lung | K-562 leukemia | OVCAR-3 ovarian | KM12 colon | SF-268 CNS | SN12C renal | M19-MEL melanoma | SW-620 colon | SF-295 CNS | LOX IMVI melanoma | TK-10 renal | HOP-62 NSCLC | HCC-2998 colon | RXF 393 renal | RPMI-8226 leukemia | OVCAR-4 ovarian | XF 498 CNS | U251 CNS | 786-0 renal | ACHN renal | HCT-15 colon
79.7 µM: OVCAR-5 ovarian
61 µM: MOLT-4 leukemia
38.6 µM: HL-60(TB) leukemia
90.2 µM: UACC-62 melanoma
54.2 µM: DMS 114 small cell lung
58.1 µM: CCRF-CEM leukemia

CC(C)=CC(=O)OC1C2C(C)=CC(O)C(O)C2(C)C2C3(O)OCC24C(CC(=O)OC14)C(C)C3O (configuration not stated)
0.101 µM: DMS 273 small cell lung
0.103 µM: NCI-H522 lung
0.199 µM: SK-MEL-28 melanoma
4.81 µM: SW-620 colon
0.127 µM: M19-MEL melanoma
0.064 µM: SK-MEL-5 melanoma
0.82 µM: OVCAR-8 ovarian
6.84 µM: HCT-15 colon
0.81 µM: SF-295 CNS
0.0201 µM: P388 leukemia
0.171 µM: OVCAR-3 ovarian
0.749 µM: OVCAR-4 ovarian
2.43 µM: UACC-257 melanoma
4.07 µM: A498 renal
7.09 µM: P388/ADR leukemia
0.683 µM: HOP-62 NSCLC
0.655 µM: SK-MEL-2 melanoma
13.9 µM: CAKI-1 renal
1.11 µM: SNB-78 CNS
0.706 µM: IGROV1 ovarian
0.836 µM: HT29 colon
0.519 µM: SNB-19 CNS
0.325 µM: LOX IMVI melanoma
0.263 µM: UACC-62 melanoma
123 µM: NCI/ADR-RES ovarian
0.693 µM: SNB-75 CNS
0.572 µM: HCC-2998 colon
0.733 µM: SF-268 CNS
1.31 µM: MOLT-4 leukemia
0.337 µM: NCI-H460 lung
0.0909 µM: SN12K1 renal
0.0567 µM: DMS 114 small cell lung
9.68 µM: A549 NSCLC
0.587 µM: XF 498 CNS
0.485 µM: DLD-1 colon
0.622 µM: KM12 colon
0.248 µM: U251 CNS
0.933 µM: RXF 393 renal
0.187 µM: SF-539 CNS
0.387 µM: NCI-H23 lung
0.409 µM: HL-60(TB) leukemia
4.57 µM: KM20L2 colon
0.381 µM: HCT-116 colon
7.58 µM: HOP-18 NSCLC
0.26 µM: HOP-92 NSCLC
0.107 µM: MCF7 breast
1.79 µM: K-562 leukemia
3.79 µM: OVCAR-5 ovarian
0.642 µM: EKVX NSCLC
0.131 µM: RPMI-8226 leukemia
8.57 µM: UO-31 renal
0.388 µM: NCI-H226 lung
6.9 µM: SN12C renal
0.624 µM: CCRF-CEM leukemia
0.0844 µM: MALME-3M melanoma
2.77 µM: COLO 205 colon

O=c1ccn(/C=C/C(O)C(O)CO)c(=O)[nH]1 (configuration not stated)
> 100 µM: UACC-257 melanoma | A498 renal | NCI-H23 lung | EKVX NSCLC | SK-OV-3 ovarian | DMS 273 small cell lung | DMS 114 small cell lung | CCRF-CEM leukemia | NCI-H226 lung | LXFL 529 NSCLC | COLO 205 colon | DLD-1 colon | KM20L2 colon | A549 NSCLC | MOLT-4 leukemia | SNB-78 CNS | SK-MEL-2 melanoma | SK-MEL-28 melanoma | NCI-H522 lung | IGROV1 ovarian | MALME-3M melanoma | RXF-631 renal | HOP-18 NSCLC | HT29 colon | SNB-75 CNS | SF-539 CNS | SNB-19 CNS | HCT-116 colon | OVCAR-5 ovarian | SK-MEL-5 melanoma | OVCAR-8 ovarian | UO-31 renal | UACC-62 melanoma | K-562 leukemia | OVCAR-3 ovarian | SF-268 CNS | SN12C renal | M19-MEL melanoma | SW-620 colon | CAKI-1 renal | HL-60(TB) leukemia | SF-295 CNS | LOX IMVI melanoma | TK-10 renal | HOP-62 NSCLC | HCC-2998 colon | RPMI-8226 leukemia | OVCAR-4 ovarian | XF 498 CNS | U251 CNS | 786-0 renal | ACHN renal | HCT-15 colon
40.9 µM: KM12 colon
